From patent US9200008B2 (ASKA PHARMACEUTICAL CO., LTD., priority 2010, dated 2015)

Each molecule was assayed on Human prostate cancer cell lines (PC-3 cells) (assay: Measurement of cell death-inducing activity (Test Example 1)). Details: PC-3, 48 h, 48 hours after addition, tested at 10, 1, 0.1, 0.025 and 0.00625 μmol/L, qualitative evaluation of 10 fields, read-out: Concentration showing the cell death-inducing activity (cell death-inducing rate not less than 40%).
Type: cell-based
Summary of the method: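 PC-3 cells seeded at 1×10^5 cells/well and grown 48 h at 37 °C, 5% CO2, then exposed to compound at 10, 1, 0.1, 0.025 and 0.00625 μmol/L (DMSO control) for a further 48 h. Activity was called where cell death-inducing rate was not less than 40%.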

Structure (SMILES) | minimal effective concentration [µM]
CCn1cnc2cc(NC(=O)OCc3sc(-c4ccc(F)cc4Cl)nc3C)ccc21 [Example 13-18] | 0.025
CCCn1cnc2cc(NC(=O)OCc3sc(-c4ccc(C)cc4C)nc3C)ccc21 [Example 13-19] | 1
CCn1c(C)nc2cc(NC(=O)OCc3sc(-c4ccc(C)cc4C)nc3C)ccc21 [Example 13-20] | 1
CCn1c(C)nc2cc(NC(=O)OCc3sc(-c4ccc(Cl)cc4C)nc3C)ccc21 [Example 13-21] | 0.1
COc1ccccc1-c1nc(C)c(COC(=O)Nc2ccc3c(c2)nc2n3CCOC2)s1 [Example 13-22] | 10
COc1cc(Cl)ccc1-c1nc(C)c(COC(=O)Nc2ccc3c(c2)nc2n3CCOC2)s1 [Example 13-23] | 1
Cc1ccc(-c2nc(C)c(COC(=O)Nc3ccc4c(c3)nc3n4CCOC3)s2)c(C)c1 [Example 13-24] | 0.025
Cc1cc(F)ccc1-c1nc(C)c(COC(=O)Nc2ccc3c(c2)nc2n3CCOC2)s1 [Example 13-25] | 0.025
Cc1cc(Cl)ccc1-c1nc(C)c(COC(=O)Nc2ccc3c(c2)nc2n3CCOC2)s1 [Example 13-26] | 0.00625
COc1cc(Cl)ccc1-c1nc(C)c(COC(=O)Nc2ccc3c(c2)nc2n3CCC2)s1 [Example 13-27] | 1
Cc1ccc(-c2nc(C)c(COC(=O)Nc3ccc4c(c3)nc3n4CCC3)s2)c(C)c1 [Example 13-28] | 0.025
Cc1nc(-c2ccc(F)cc2Cl)sc1COC(=O)Nc1ccc2c(c1)nc1n2CCC1 [Example 13-30] | 0.1
COc1cc(Cl)ccc1-c1nc(C)c(COC(=O)Nc2ccc3c(c2)nc2n3CCCC2)s1 [Example 13-31] | 1
Cc1ccc(-c2nc(C)c(COC(=O)Nc3ccc4c(c3)nc3n4CCCC3)s2)c(C)c1 [Example 13-33] | 0.1
Cc1cc(F)ccc1-c1nc(C)c(COC(=O)Nc2ccc3c(c2)nc2n3CCCC2)s1 [Example 13-34] | 0.025
Cc1cc(Cl)ccc1-c1nc(C)c(COC(=O)Nc2ccc3c(c2)nc2n3CCCC2)s1 [Example 13-35] | 0.025
COc1cc(Cl)ccc1-c1nc(C)c(COC(=O)Nc2ccc3c(c2)nc2n3C(C)CCC2)s1 (stereo not drawn) [Example 13-36] | 10
Cc1cc(Cl)ccc1-c1nc(C)c(COC(=O)Nc2ccc3c(c2)nc2n3CCCCC2)s1 [Example 13-39] | 1
COc1cc(Cl)ccc1-c1nc(C)c(COC(=O)Nc2ccc3c(cnn3C)c2)s1 [Example 13-41] | 1
CCn1ncc2cc(NC(=O)OCc3sc(-c4ccc(F)cc4C)nc3C)ccc21 [Example 13-44] | 0.1
CCn1ncc2cc(NC(=O)OCc3sc(-c4ccc(C)cc4C)nc3C)ccc21 [Example 13-45] | 0.1
COc1cc(Cl)ccc1-c1nc(C)c(COC(=O)Nc2ccc3nn(C)cc3c2)s1 [Example 13-46] | 10
Cc1ccc(-c2nc(C)c(COC(=O)Nc3ccc4nn(C)cc4c3)s2)c(C)c1 [Example 13-48] | 0.1
Cc1cc(F)ccc1-c1nc(C)c(COC(=O)Nc2ccc3nn(C)cc3c2)s1 [Example 13-49] | 0.1

Structure (SMILES) | minimal effective concentration [µM]
Cc1cc(Cl)ccc1-c1nc(C)c(COC(=O)Nc2ccc3nn(C)cc3c2)s1 [Example 13-50] | 0.025
CCn1cc2cc(NC(=O)OCc3sc(-c4ccc(F)cc4C)nc3C)ccc2n1 [Example 13-54] | 0.1
CCn1cc2cc(NC(=O)OCc3sc(-c4ccc(Cl)cc4C)nc3C)ccc2n1 [Example 13-55] | 0.025
CCn1cc2cc(NC(=O)OCc3sc(-c4ccc(F)cc4Cl)nc3C)ccc2n1 [Example 13-56] | 0.1
CCn1cnc2cc(NC(=O)OCc3sc(-c4ccco4)nc3C)ccc21 [Example 13-57] | 1
Cc1nc(-c2sccc2Cl)sc1COC(=O)Nc1ccc2c(c1)nc1n2CCOC1 [Example 13-61] | 10
COc1ccccc1-c1ncc(COC(=O)Nc2ccc3c(c2)ncn3C)s1 [Example 13-66] | 10
CCc1nc(-c2ccc(Cl)cc2OC)sc1COC(=O)Nc1ccc2c(c1)ncn2C [Example 13-67] | 0.1
CCCc1nc(-c2ccc(Cl)cc2OC)sc1COC(=O)Nc1ccc2c(c1)ncn2C [Example 13-68] | 1
COc1ccc(NC(=O)OCc2cc(-c3ccc(F)cc3OC)nn2C)cc1 [Example 13-70] | 10
COc1ccc(NC(=O)OCc2cc(-c3ccc(Cl)cc3OC)nn2C)cc1F [Example 13-71] | 1
COc1ccc(NC(=O)OCc2cc(-c3ccc(C)cc3OC)nn2C)cc1F [Example 13-72] | 1
COc1cc(Cl)ccc1-c1cc(COC(=O)Nc2ccc3c(c2)CCO3)n(C)n1 [Example 13-73] | 10
COc1ccccc1-c1cc(COC(=O)Nc2ccc3c(c2)ncn3C)n(C)n1 [Example 13-76] | 0.025
CCn1nc(-c2ccccc2OC)cc1COC(=O)Nc1ccc2c(c1)ncn2C [Example 13-77] | 0.1
CCn1cnc2cc(NC(=O)OCc3cc(-c4ccccc4OC)nn3C)ccc21 [Example 13-78] | 0.1
COc1cc(F)ccc1-c1cc(COC(=O)Nc2ccc3c(c2)ncn3C)n(C)n1 [Example 13-80] | 0.00625
CCn1nc(-c2ccc(F)cc2OC)cc1COC(=O)Nc1ccc2c(c1)ncn2C [Example 13-81] | 0.025
CCn1cnc2cc(NC(=O)OCc3cc(-c4ccc(F)cc4OC)nn3C)ccc21 [Example 13-82] | 0.025
CCn1nc(-c2ccc(F)cc2OC)cc1COC(=O)Nc1ccc2c(c1)ncn2CC [Example 13-83] | 0.025
COc1cc(Cl)ccc1-c1cc(COC(=O)Nc2ccc3c(c2)ncn3C)n(C)n1 [Example 13-84] | 0.00625
CCn1nc(-c2ccc(Cl)cc2OC)cc1COC(=O)Nc1ccc2c(c1)ncn2C [Example 13-85] | 0.00625
CCn1cnc2cc(NC(=O)OCc3cc(-c4ccc(Cl)cc4OC)nn3C)ccc21 [Example 13-86] | 0.00625
CCn1nc(-c2ccc(Cl)cc2OC)cc1COC(=O)Nc1ccc2c(c1)ncn2CC [Example 13-87] | 0.025

Structure (SMILES) | minimal effective concentration [µM]
COc1cc(C)ccc1-c1cc(COC(=O)Nc2ccc3c(c2)ncn3C)n(C)n1 [Example 13-88] | 0.00625
CCn1nc(-c2ccc(C)cc2OC)cc1COC(=O)Nc1ccc2c(c1)ncn2C [Example 13-89] | 0.00625
CCn1nc(-c2ccc(C)cc2OC)cc1COC(=O)Nc1ccc2c(c1)ncn2CC [Example 13-91] | 0.1
CCn1cnc2cc(NC(=O)OCc3cc(-c4ccc(C)cc4C)nn3C)ccc21 [Example 13-92] | 0.00625
COCc1nc2cc(NC(=O)OCc3cc(-c4ccc(C)cc4OC)nn3C)ccc2n1C [Example 13-93] | 1
COCCn1cnc2cc(NC(=O)OCc3cc(-c4ccc(Cl)cc4OC)nn3C)ccc21 [Example 13-94] | 1
COc1ccccc1-c1cc(COC(=O)Nc2ccc3c(c2)nc2n3CCOC2)n(C)n1 [Example 13-95] | 0.025
CCn1nc(-c2ccccc2OC)cc1COC(=O)Nc1ccc2c(c1)nc1n2CCOC1 [Example 13-96] | 0.1
COc1cc(F)ccc1-c1cc(COC(=O)Nc2ccc3c(c2)nc2n3CCOC2)n(C)n1 [Example 13-97] | 0.00625
CCn1nc(-c2ccc(F)cc2OC)cc1COC(=O)Nc1ccc2c(c1)nc1n2CCOC1 [Example 13-98] | 0.025
COc1cc(Cl)ccc1-c1cc(COC(=O)Nc2ccc3c(c2)nc2n3CCOC2)n(C)n1 [Example 13-99] | 0.00625
CCn1nc(-c2ccc(Cl)cc2OC)cc1COC(=O)Nc1ccc2c(c1)nc1n2CCOC1 [Example 13-100] | 0.00625
CCn1nc(-c2ccc(C)cc2OC)cc1COC(=O)Nc1ccc2c(c1)nc1n2CCOC1 [Example 13-102] | 0.025
Cc1ccc(-c2cc(COC(=O)Nc3ccc4c(c3)nc3n4CCOC3)n(C)n2)c(C)c1 [Example 13-103] | 0.00625
CCn1nc(-c2ccc(C)cc2C)cc1COC(=O)Nc1ccc2c(c1)nc1n2CCOC1 [Example 13-104] | 0.025
COc1ccccc1-c1cc(COC(=O)Nc2ccc3c(c2)nc2n3CCC2)n(C)n1 [Example 13-105] | 0.025
COc1cc(F)ccc1-c1cc(COC(=O)Nc2ccc3c(c2)nc2n3CCC2)n(C)n1 [Example 13-106] | 0.00625
CCn1nc(-c2ccc(F)cc2OC)cc1COC(=O)Nc1ccc2c(c1)nc1n2CCC1 [Example 13-107] | 0.025
COc1cc(Cl)ccc1-c1cc(COC(=O)Nc2ccc3c(c2)nc2n3CCC2)n(C)n1 [Example 13-108] | 0.00625
CCn1nc(-c2ccc(Cl)cc2OC)cc1COC(=O)Nc1ccc2c(c1)nc1n2CCC1 [Example 13-109] | 0.00625
Cc1ccc(-c2cc(COC(=O)Nc3ccc4c(c3)nc3n4CCC3)n(C)n2)c(C)c1 [Example 13-110] | 0.00625
CCn1nc(-c2ccc(C)cc2C)cc1COC(=O)Nc1ccc2c(c1)nc1n2CCC1 [Example 13-111] | 0.00625
COc1cc(C)ccc1-c1cc(COC(=O)Nc2ccc3c(c2)nc2n3CCC2)n(C)n1 [Example 13-112] | 0.00625
CCn1nc(-c2ccc(C)cc2OC)cc1COC(=O)Nc1ccc2c(c1)nc1n2CCC1 [Example 13-113] | 0.00625
